Assay results as given in patent US4987121A, “Erythropoietic factor” (Center for Innovative Technology, priority 1988, dated 1991).
Ends that are not written are not given here.

Columns and labels:
[1] = tested on: erythroid precursors (BFU-E and CFU-E); test: erythroid progenitor BFU-E and CFU-E assay (statements covering both progenitors); type: cell-based, human; conditions: for effect on the stimulatory effect of Epo on both BFU-E and CFU-E: ANF analog 0.32 nM + Epo 250 mU/ml; for potentiation of erythropoiesis versus concentration: with Epo
Description: (§1) Utilization of cell culture techniques allowed for the detection of molecules other than Epo which act on erythropoietic precursor cells. […] The erythroid progenitor BFU-E and CFU-E assay was utilized for the in vitro studies by the following method:
(§2) (1) Collect bone marrow cells from normal human volunteers after obtaining informed consent.
(§3) (2) Suspend cells in α-medium containing 10% fetal calf serum.
(§4) (3) Separate by Ficoll-Hypaque gradient to obtain an enriched mononuclear cell population.
(§5) (4) Culture cells (5×10^4 per plate) in petri dishes using a methylcellulose technique (see, Iscove, J. Cell Physiol 83: 309, (1974)).
(§6) (5) Add Human Epo, available from the Toyoba Corp. of New York, N.Y., to the culture on day zero.
(§7) (6) Add ANF-like peptides on days zero, two, five, eight, and eleven.
(§8) In the absence of Epo, ANF has no effect on erythroid colony formation. In FIG. 1, the effects of α-ANF[1-28] alone and in conjunction with an added amount of Epo were studied. Human α-ANF[1-28] diluted in α-medium, obtained from the Peninsula Corporation, was added to the cultures every three days starting at day zero. Control cultures were supplemented with Phosphate Buffered Saline (PBS) alone. PBS is available from the GIBCO corporation of Grand Island, N.Y. Triplicate plates were incubated at 37° C. in a humidified atmosphere of 7% CO2 in air. On the eighth day, cell aggregates which contained more than seven erythroid cells were counted as CFU-E. On the fourteenth day, aggregates of forty cells or more were counted as BFU-E. Hemoglobinization of the cells was confirmed by using a Soret band and morphologically from stained smears. In FIG. 1, the number of observations is indicated in the bottom part of the bar. The standard estimates from mean (SEM) are indicated as error bars. Statistical significances were obtained by using Kruskal-Wallis Analysis of Variance (one way by ranks). Probabilities in FIGS. 1 and 2 are indicated by: 1*=p<0.05; 2*=p<0.01;3*=p<0.005; and 4*=p<0.001. […] The relative increase of Epo activity caused by the presence of ANF is the subject of this invention.
The numbers were determined using the lowest ANF concentration as a reference point in each group. There were six observations per group. […] The number values for BFU-E and CFU-E in a culture containing 0.25 U/ml Epo and 0.32 nM α-ANF[1-28] are different for FIGS. 1 and 2 because different human volunteer bone marrow donors were used for each study. The absolute numbers are not the focus of this invention, rather, the subject of this invention is the relative increase in the production of BFU-E and CFU-E caused by Epo in the presence of ANF.

BFU-E = test: erythroid progenitor BFU-E assay, human bone marrow cells in methylcellulose culture; type: cell-based; conditions: for Potentiation of BFU-E(%): ANF analog 0.32 nM + Epo 250 mU/ml, relative to effect of α-ANF[1-28] (100%)
Description: as §1, §2, §3, §4, §5, §6, §7, §8

CFU-E = test: erythroid progenitor CFU-E assay, human bone marrow cells in methylcellulose culture; type: cell-based; conditions: for Potentiation of CFU-E(%): ANF analog 0.32 nM + Epo 250 mU/ml, relative to effect of α-ANF[1-28] (100%)
Description: as §1, §2, §3, §4, §5, §6, §7, §8

peripheral blood BFU-E = peripheral blood BFU-E assay in the absence of T cells and macrophages; type: cell-based, human; conditions: for BFU-E/culture ± SEM: peripheral blood cells, T cells and macrophages removed
Experimental: The cultures contained peripheral blood derived cells instead of bone marrow cells. After Ficoll-Hypaque separation, preparations from peripheral blood were further incubated in plastic dishes twice for thirty minutes to remove macrophages. The majority of T cells were removed by rosetting with sheep red blood cells, available from the Lampire Corporation of Pipersville, Pa., and centrifugation. The remaining T-cells were removed by incubating the cell suspension with Leu-1 antibody, available from Becton-Dickenson, Inc. of Mountain View, Calif., and rabbit complement. Less than 0.3% of macrophages and T cells could be detected in the remaining cell suspension. The probabilities in Table 1 are as follows: *=p<0.025 and **=p<0.005. There were three observations per group. As shown by Table 1, the number of peripheral blood derived BFU-E increased three fold in the presence 0.32 nM of α-ANF[1-28] in cultures containing 250 mU/ml of Epo and less than 0.3% of T cells and macrophages.

[2] = in the presence of α-ANF[1-28] 0.32 nM and Epo 250 mU/ml

Substance: α-ANF[4-28] (RSSCFGGRMDRIGAQSGLGCNSFRY; ends and bridges not checked; cysteine pairing not given here; UniProt P01160 127-151, looked up, fragment) [ANF analog available from the Peninsula Corporation; a major circulatory form of ANF]
- effect on the stimulatory effect of Epo on both BFU-E and CFU-E [1]: enhanced
- Potentiation of BFU-E(%) (BFU-E): 74.8 ± 15.3%
- Potentiation of CFU-E(%) (CFU-E): 208 ± 41.0%

Substance: α-ANF [1-11] (SLRRSSCFGGR; Atrial natriuretic peptide; UniProt P01160 124-134, looked up, fragment) [ANF[1-11], ANF analog available from the Peninsula Corporation]
- effect on the stimulatory effect of Epo on both BFU-E and CFU-E [1]: not significant
- Potentiation of BFU-E(%) (BFU-E): -1.5 ± 8.8%
- Potentiation of CFU-E(%) (CFU-E): 14.8 ± 4.6%

Substance: α-ANF dimer
- effect on the stimulatory effect of Epo on both BFU-E and CFU-E [1]: not significant
- Potentiation of BFU-E(%) (BFU-E): 40.2 ± 26.7%
- Potentiation of CFU-E(%) (CFU-E): 25.4 ± 13.1%

Substance: erythropoietin [Epo]
- BFU-E and CFU-E yield ([1]; 2,000 mU/ml of Epo compared with 250 mU/ml of Epo, identical α-ANF[1-28] concentrations): higher
- effect of Epo alone on erythroid precursors ([1]; Epo alone 250 mU/ml): stimulated both erythroid precursors
- BFU-E/culture ± SEM (peripheral blood BFU-E; Experiment 1, Epo 250 mU/ml alone): 7.0 ± 0.9
- BFU-E/culture ± SEM (peripheral blood BFU-E; Experiment 2, Epo 250 mU/ml alone): 14.0 ± 2.0

Substance: α-ANF[5-28] (SSCFGGRMDRIGAQSGLGCNSFRY; ends and bridges not checked; cysteine pairing not given here; UniProt P01160 128-151, looked up, fragment) [ANF analog available from the Peninsula Corporation; a major circulatory form of ANF]
- effect on the stimulatory effect of Epo on both BFU-E and CFU-E [1]: enhanced
- Potentiation of BFU-E(%) (BFU-E): 98.5 ± 38.6%
- Potentiation of CFU-E(%) (CFU-E): 143 ± 26.7%

Substance: α-ANF[1-28] (SLRRSSCFGGRMDRIGAQSGLGCNSFRY; not fully specified; ends and bridges not checked; UniProt P01160 124-151, looked up) [human atrial natriuretic factor peptide, obtained from the Peninsula Corporation]
- effect on erythroid precursors / erythroid colony formation in the absence of Epo ([1]; ANF alone, no Epo (0.32 nM in FIG. 1)): no effect
- effect on the stimulatory effect of Epo on both BFU-E and CFU-E [1]: enhanced
- increase of BFU-E and CFU-E production ([1]; in the presence of Epo): up to four fold
- potentiation of erythropoiesis versus concentration ([1]; α-ANF[1-28] concentrations above 0.96 nM): leveled off or even declined
- potentiation of erythropoiesis versus concentration ([1]; α-ANF[1-28] increased from 0.032 nM to 0.96 nM): concentration dependent potentiation
- increase in number of peripheral blood derived BFU-E (peripheral blood BFU-E; 0.32 nM α-ANF[1-28], 250 mU/ml Epo, less than 0.3% of T cells and macrophages): three fold
- BFU-E/culture ± SEM (peripheral blood BFU-E; Experiment 1, ANF 0.32nM + Epo 250 mU/ml): 22.7 ± 1.9
- BFU-E/culture ± SEM (peripheral blood BFU-E; Experiment 2, ANF 0.32nM + Epo 250 mU/ml): 42.3 ± 6.8
- Potentiation of BFU-E(%) (BFU-E): 100 ± 24.9%
- increase in BFU-E (BFU-E; Epo 250 mU/ml plus α-ANF[1-28] 0.32 nM versus Epo alone (FIG. 1)): four-fold
- actual numbers of BFU-E (BFU-E; [2]): 103±26
- Potentiation of CFU-E(%) (CFU-E): 100 ± 39.2%
- increase in CFU-E (CFU-E; Epo 250 mU/ml plus α-ANF[1-28] 0.32 nM versus Epo alone): two-fold
- actual numbers of CFU-E (CFU-E; [2]): 440±176
